The values that follow come from US20230372244A1, “Methods of Preparing Cell-Derived Vesicles” (NATIONAL UNIVERSITY OF SINGAPORE, priority 2020, published 2023).

For one assay, the system named is MCF-7 xenograft. Briefly: MCF-7 xenograft in mice, DOX and/or PEMF. Type of assay: in vivo. The conditions noted are these: weekly PEMF and DOX exposures.
The test system of assay [1] is patient-derived tumor xenografts. Briefly: Patient-derived tumor xenografts in NSG mice, DOX and/or PEMF. Type of assay: in vivo. The conditions noted are these: 20 mg/kg DOX intravenously and/or PEMF 1 h weekly for 5 weeks. On the technique in general: A xenograft is tissue or cells of one species grown in another, often human tumour cells in immunodeficient mice.
Protocol: (A) Schematic of PEMF and DOX exposures regimes used on mice hosting patient-derived tumor xenografts. Implanted tumors were allowed to grow for 3 weeks before the initiation of DOX and/or PEMF treatments. Tumor volumes were measured each week while apoptotic cell determination was performed at the end of the study. Each data point represents the mean from 5 experimental runs derived from the tumors obtained from 5 patients, each of which was equally divided amongst the 5 treatment groups. (B) Changes in tumor volume (mm^3) for 5 weeks. (C) Representative scatter dot-plots showing cell population of dissociated tumors sorted based on annexin and propidium iodide staining. (D) Bar chart represents pooled data of apoptotic cell percentages analyzed using flow cytometry. N=5 mice, with *, p<0.05, **, p<0.01, and #p<0.0001. The error bars are expressed as the standard error of the mean.
The NSG mice were purchased from Jackson's laboratory and used at 8-10 weeks of age. Briefly, each female NSG mouse was implanted with a subcutaneous 60-day (0.36 mg) slow-release estradiol pellet (Innovative Research of America). Each patient tumor was equally divided into 5 chunks and implanted into the dorsal flank of 5 animals corresponding to the 5 different treatment groups. […] At the end of the study, tumor volume was measured and isolated for apoptotic cell determination. […]
A further assay has as its system MCF-7/TRPC1 cells. Briefly: DNA content and colony formation of TRPC1 overexpressing MCF-7 cells with DOX and PEMF. The conditions noted are these: TRPC1 overexpression versus vector cells. Type of assay: cell-based. The method, then: FIG. 17. […] (A) PEMF and DOX treatment regime for MCF-7/TRPC1 cell DNA quantification. (B) DNA fold change relative to 0 mT vector cells. Statistical analysis was done using the two-sample t-test. (C) Colony formation after 10 days in the presence of 0 nM, 10 nM or 20 nM DOX, without PEMF exposure. Images of colony formation and the quantification of colony size frequency distribution normalized to the total number of colonies in the presence of 10 nM DOX for (D) vector and (E) MCF-7/TRPC1 cells or 20 nM DOX for (F) vector and (G) MCF-7/TRPC1 cells, concomitant with daily PEMF exposure. *, p<0.05, **, p<0.01 and ***, p<0.001 indicate the statistical difference between the respective 0 mT and 3 mT condition within the same bin. (H) PEMF-modulated proliferation of TRPC1-silenced MCF-7 cells 48 h post dsiRNA transfection. […]
(§1) For cell enumeration using trypan blue exclusion assay, MCF-7, MDA-MB-231, or MCF10A cells were seeded at 6000 cells/cm^2 per well of a 6-well plate. […] Cyquant stained DNA was measured using at 480/520 nm using Cytation 5 microplate reader (BIOTEK).
In vitro clonogenic assay was performed using crystal violet staining (24). […] The mean survival factor (colony count) was determined as the number of surviving cells over the number of cells plated and normalized to the survival factor of the control group expressed as fold change. […]

Assay [2] deals with MCF-7 cells. Briefly: Clonogenic assay of MCF-7 cells with DOX and PEMF. Type of assay: cell-based. The conditions noted are these: 20 nM DOX, low density of 100 cells per well. On the procedure: FIG. 13. […] (A) Schematic of PEMF and DOX treatment regime for DNA quantification. Cells were exposed to 3 mT for 1 h daily for 3 successive days. DOX (100 nM) was administered on the final day 1 h before the last PEMF exposure. Cellular DNA content was measured 24 h after the last PEMF exposure. (B) Bar chart of pooled data for Cyquant DNA content in fold change 24 h post-DOX and PEMF treatments. (C) Colony formation paradigm for MCF-7 cells treated with DOX and PEMFs. (D) MCF-7 colony formation in the presence of 10 and 20 nM DOX, with and without PEMF exposure as indicated. Cells were seeded at a low density of 100 cells per well. (E) Colony survival in 10 nM DOX under low-density conditions. […] (F) MCF-7 colony formation in the presence of 10 and 20 nM DOX, with and without PEMF exposure under high-density seeding of 1000 cells per well. […] (H) Absolute DCH2FDA-ROS fluorescence from MCF-7 cells. […]
In vitro clonogenic assay was performed using crystal violet staining (24). […] The mean survival factor (colony count) was determined as the number of surviving cells over the number of cells plated and normalized to the survival factor of the control group expressed as fold change. The colony size relative frequency was determined by binning colonies into several bins, according to their relative size from the smallest to the largest colonies after normalizing to the total number of cells.

Assay [3] has as its system MCF-7 cells. The experiment in a line: Cyquant DNA content of MCF-7 cells after DOX and PEMF. The conditions noted are these: DOX 100 nM; 3 mT PEMF 1 h daily for 3 days. Type of assay: cell-based. The method, then: FIG. 13. […] (A) Schematic of PEMF and DOX treatment regime for DNA quantification. Cells were exposed to 3 mT for 1 h daily for 3 successive days. DOX (100 nM) was administered on the final day 1 h before the last PEMF exposure. Cellular DNA content was measured 24 h after the last PEMF exposure. (B) Bar chart of pooled data for Cyquant DNA content in fold change 24 h post-DOX and PEMF treatments. (C) Colony formation paradigm for MCF-7 cells treated with DOX and PEMFs. (D) MCF-7 colony formation in the presence of 10 and 20 nM DOX, with and without PEMF exposure as indicated. Cells were seeded at a low density of 100 cells per well. (E) Colony survival in 10 nM DOX under low-density conditions. […] (F) MCF-7 colony formation in the presence of 10 and 20 nM DOX, with and without PEMF exposure under high-density seeding of 1000 cells per well. The images on the right are the zoom-in images of cells under the same treatment paradigm. […] (H) Absolute DCH2FDA-ROS fluorescence from MCF-7 cells. […]
as §1

The target of the next assay is T1, TRPA1 (Mus musculus, UniProt Q8BLA8).
T1 construct: containing Fluo-4 loaded myoblast-derived CDVs from the same culture; endogenous in cells
The experiment in a line: TRP channel functional assessment of immobilized CDVs (menthol, Fluo-4 calcium signal). Type of assay: biochemical, Murine. The conditions noted are these: Fluo-4 loaded myoblast-derived CDVs on microfluidic chip; versus CDVs not administered menthol. An excerpt:
FIG. 1. Schematic depicting the tests applied to CDVs to ascertain 1) innate channel functionality and 2) recuperative potential for cellular respiratory and proliferative capacities. 1) Cell-free assays were comprised of examining specific TRP channel activation by menthol (TRPA1) or magnetic fields (TRPC1). 2) Cell-based assays entailed administering wild type CDVs to TRPC1-knockdown myoblasts followed by testing for recuperation of cellular proliferative and mitochondrial respiratory capacities.
FIG. 4. A) Schematics of the CDV immobilization 1), loading 2), and TRP channel functional assessment 3). […] Red fluorescence is Texas Red as part of the biochemical linker, the dotted line indicates the edge of the print. […] Data were simultaneously recorded from 3 parallel channels of the same microfluidic chip containing Fluo-4 loaded myoblast-derived CDVs from the same culture, 2 channels with menthol administration and one without (negative control). […] Representative calcium responses (Rate of Rise (ROR) normalized to starting value) from intact C2C12 myoblasts D) or CDVs E) derived from wild type C2C12 myoblasts (left) or C2C12 CRISPR/Cas9 knockdown myoblasts, 60 (middle), and 61 (right), in response to 10 min magnetic field exposure (1.5 mT) while in suspension immediately before reading. […]

Each structure is given as a SMILES string. Structures can show the parent of a compound that is named as a salt.

T1 sequence (Q8BLA8 whole entry): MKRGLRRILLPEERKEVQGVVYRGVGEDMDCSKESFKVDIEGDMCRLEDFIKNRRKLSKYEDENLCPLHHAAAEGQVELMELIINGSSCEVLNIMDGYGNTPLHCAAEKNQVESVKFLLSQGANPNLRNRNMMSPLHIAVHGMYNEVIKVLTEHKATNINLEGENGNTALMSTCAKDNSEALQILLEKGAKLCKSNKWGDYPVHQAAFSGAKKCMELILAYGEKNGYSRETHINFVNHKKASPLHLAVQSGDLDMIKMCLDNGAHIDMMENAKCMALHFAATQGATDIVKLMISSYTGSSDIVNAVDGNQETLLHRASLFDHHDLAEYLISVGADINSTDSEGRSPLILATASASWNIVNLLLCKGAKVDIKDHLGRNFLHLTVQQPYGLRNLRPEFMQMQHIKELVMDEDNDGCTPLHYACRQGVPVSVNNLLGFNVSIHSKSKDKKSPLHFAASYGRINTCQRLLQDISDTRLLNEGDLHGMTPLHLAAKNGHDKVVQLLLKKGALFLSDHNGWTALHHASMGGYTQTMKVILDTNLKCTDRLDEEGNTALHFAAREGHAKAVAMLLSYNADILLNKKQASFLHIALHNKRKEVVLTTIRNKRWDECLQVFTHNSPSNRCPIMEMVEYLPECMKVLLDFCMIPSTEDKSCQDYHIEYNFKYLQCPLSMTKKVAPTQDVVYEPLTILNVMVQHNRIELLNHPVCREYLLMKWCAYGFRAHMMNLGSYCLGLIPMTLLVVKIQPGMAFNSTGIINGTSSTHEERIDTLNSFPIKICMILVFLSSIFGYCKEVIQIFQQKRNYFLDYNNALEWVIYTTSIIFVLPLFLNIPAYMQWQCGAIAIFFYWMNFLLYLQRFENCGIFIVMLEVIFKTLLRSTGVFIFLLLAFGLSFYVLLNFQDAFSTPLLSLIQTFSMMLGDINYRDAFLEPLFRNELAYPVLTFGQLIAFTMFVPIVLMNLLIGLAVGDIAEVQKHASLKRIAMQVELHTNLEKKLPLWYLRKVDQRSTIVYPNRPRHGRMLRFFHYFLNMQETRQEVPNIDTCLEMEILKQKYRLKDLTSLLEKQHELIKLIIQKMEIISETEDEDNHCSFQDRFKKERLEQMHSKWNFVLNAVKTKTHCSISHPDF
Protocol for MCF-7 xenograft: (A) Schematic of weekly PEMF and DOX exposures on MCF-7 xenograft in mice. Implanted cells were allowed to grow for 3 weeks before the initiation of DOX and/or PEMF treatment. Apoptotic cell determination was performed at the end of the study. […] N=6 mice, with *, p<0.05, **, p 1137<0.01, and #, p<0.0001. The error bars are expressed as the standard error of the mean.
The NSG mice were purchased from Jackson's laboratory and used at 8-10 weeks of age. Briefly, each female NSG mouse was implanted with a subcutaneous 60-day (0.36 mg) slow-release estradiol pellet (Innovative Research of America). […] The tumors were allowed to grow for 3 weeks. For MCF-7, 1×10^6 cells were counted and mixed in a 40-60% ratio with Matrigel Growth Factor (Bio Laboratories, Cat No. 354230). The cells are injected subcutaneously into the dorsal flank of the animals corresponding to the different treatment groups. The animals were given 20 mg/kg DOX intravenously and/or PEMFs stimulation for 1 h weekly for 5 weeks. At the end of the study, tumor volume was measured and isolated for apoptotic cell determination.
For apoptotic cell determination, the tumors were dissociated to single cells using the MACS Tumor Dissociation Kit in combination with the gentleMACS Dissociator (Miltenyi Biotec) as according to the manufacturer's protocol. After dissociation, the cells were filtered through a 30 μm MACS SmartStrainer. […]

As for `COc1cccc2c1C(=O)c1c(O)c3c(c(O)c1C2=O)C[C@@](O)(C(=O)CO)C[C@@H]3O[C@H]1C[C@H](N)[C@H](O)[C@H](C)O1` [DOX, Doxorubicin hydrochloride], the MCF-7 tumor growth result in the assay on MCF-7 xenograft is “synergize with doxorubicin to inhibit MCF-7 tumor growth in vivo”. The tumor growth result in assay [1] is on record as “synergize with DOX to inhibit tumor growth in vivo”. Further, in the assay with MCF-7/TRPC1 cells, the “sensitivity of MCF-7 cells to doxorubicin” value is “TRPC1 overexpression sensitizes MCF-7 cells to doxorubicin”. In addition, the colony number result in the assay with MCF-7 cells [2] is “too few to quantify accurately”. Further, the “MCF-7 cell vulnerability to doxorubicin (DNA content)” value in the assay on MCF-7 cells [3] was “enhances MCF-7 cell vulnerability to doxorubicin”.
`CC1CCC(C(C)C)C(O)C1` (stereo not drawn) [Menthol, menthol]: the intra-CDV calcium concentration result on TRPA1 was “increases in intra-CDV calcium concentration”.
